Assays:
[1] = system: Tetranychus urticae (Two-Spotted Spider Mite); assay: Example B4: Tetranychus urticae (two-spotted spider mite), feeding/contact activity, sprayed bean leaf discs; format: in vivo; conditions: foliar, 192 h, application rate 200 ppm, mixed population (mobile stages) on sprayed bean leaf discs, 8 days after infestation
Description: Example B4: Tetranychus urticae (Two-Spotted Spider Mite): Feeding/Contact Activity
Bean leaf discs on agar in 24-well microtiter plates were sprayed with aqueous test solutions prepared from 10'000 ppm DMSO stock solutions. After drying the leaf discs were infested with a mite population of mixed ages. The samples were assessed for mortality on mixed population (mobile stages) 8 days after infestation.

[2] = system: Plutella xylostella (Diamond Back Moth); assay: Example B3: Plutella xylostella (diamond back moth), treated artificial diet, eggs; format: in vivo; conditions: 192 h, application rate 200 ppm, eggs on treated artificial diet, 8 days after infestation, vs untreated, read-out: effect in at least one of the two categories (mortality or growth inhibition)
Description: Example B3: Plutella xylostella (Diamond Back Moth)
24-well microtiter plates with artificial diet were treated with aqueous test solutions prepared from 10'000 ppm DMSO stock solutions by pipetting. After drying, Plutella eggs were pipetted through a plastic stencil onto a gel blotting paper and the plate was closed with it. The samples were assessed for mortality and growth inhibition in comparison to untreated samples 8 days after infestation.
The following compounds gave an effect of at least 80% in at least one of the two categories (mortality or growth inhibition) at an application rate of 200 ppm: […]

| SMILES | mortality at 200 ppm [1] | effect (mortality or growth inhibition) at 200 ppm [2] |
| --- | --- | --- |
| Cc1nc(C2CCN(C(=O)c3cc(C#N)c(OCc4ccc(C(F)(F)F)cc4)nc3C(F)(F)F)CC2)no1 [P1.1, 5-[4-(5-Methyl-1,2,4-oxadiazol-3-yl)piperidine-1-carbonyl]-6-(trifluoromethyl)-2-[[4-(trifluoromethyl)phenyl]methoxy]pyridine-3-carbonitrile] | ≥ 80% |  |
| Cc1nc(C2CCN(C(=O)c3cc(C#N)c(OCc4ccc(C(F)(F)F)cc4)nc3C)CC2)no1 [P1.43, 6-Methyl-5-[4-(5-methyl-1,2,4-oxadiazol-3-yl)piperidine-1-carbonyl]-2-[[4-(trifluoromethyl)phenyl]methoxy]pyridine-3-carbonitrile] | ≥ 80% |  |
| Cc1nc(C2CCN(C(=O)c3cc(C#N)c(OCc4ccc(C(F)(F)F)cc4)nc3C(F)F)CC2)no1 [P1.48, 6-(Difluoromethyl)-5-[4-(5-methyl-1,2,4-oxadiazol-3-yl)piperidine-1-carbonyl]-2-[[4-(trifluoromethyl)phenyl]methoxy]pyridine-3-carbonitrile] | ≥ 80% |  |
| N#Cc1cc(C(=O)N2CCN(c3ncc(Cl)cc3Cl)CC2)c(C(F)(F)F)nc1OCc1ccc(C(F)(F)F)cc1 [P2.1, 5-[4-(3,5-dichloro-2-pyridyl)piperazine-1-carbonyl]-6-(trifluoromethyl)-2-[[4-(trifluoromethyl)phenyl]methoxy]pyridine-3-carbonitrile] | ≥ 80% | ≥ 80% |
| CC[S+]([O-])CC1CCN(C(=O)c2cc(C#N)c(OCc3ccc(C(F)(F)F)cc3)nc2C(F)(F)F)CC1 (stereo not drawn) [P3.4, 5-[4-(Ethylsulfinylmethyl)piperidine-1-carbonyl]-6-(trifluoromethyl)-2-[[4-(trifluoromethyl)phenyl]methoxy]pyridine-3-carbonitrile] | ≥ 80% |  |
| Cc1nc(C2CCN(C(=O)c3cc(C#N)c(OCC4CC4(Cl)Cl)nc3C(F)(F)F)CC2)no1 (stereo not drawn) [P4.1, 2-[(2,2-Dichlorocyclopropyl)methoxy]-5-[4-(5-methyl-1,2,4-oxadiazol-3-yl)piperidine-1-carbonyl]-6-(trifluoromethyl)pyridine-3-carbonitrile] | ≥ 80% | ≥ 80% |
| Cc1nc(C2CCN(C(=O)c3cc(C(N)=S)c(OCc4ccc(C(F)(F)F)cc4)nc3C(F)(F)F)CC2)no1 [P6.1, 5-[4-(5-Methyl-1,2,4-oxadiazol-3-yl)piperidine-1-carbonyl]-6-(trifluoromethyl)-2-[[4-(trifluoromethyl)phenyl]methoxy]pyridine-3-carbothioamide] | ≥ 80% |  |
